#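 Assay format: 96-well plates, 48-hour exposure. TGI is the concentration that stops growth completely.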 Where a SMILES comes first, the peptide text is derived from it. Bridges are numbered along the chain shown (N, C = ends). [ ]: non-standard residue; d: D form. The star is where a group is joined. ξ: configuration not given here. PhAc = O=C(Cc1ccccc1)*; ξP = O=C(O)C1CCCN1
# Tested on: HOP-62 NSCLC
# Test: growth of human tumour cells (NCI), 48 h
row,SMILES,TGI [µM]
1,COc1ccc(-c2cc(-c3ccccc3)nc(N)c2-c2ccc3ccccc3c2)cc1,4.8
2,O=C(Cc1ccccc1)N[C@@H]1COC(=O)C2CCCN2C(=O)[C@@H]2CCCN2C1=O (stereo not given in full) (PhAc-[dS]-Pro-[ξP]; ester 1-C),> 100

# Tested on: HOP-92 NSCLC
# Test: growth of human tumour cells (NCI), 48 h
row,SMILES,TGI [µM]
1,Cc1ccc2c(=O)cc(-c3ccc(Cl)cc3)[nH]c2n1,> 100
2,CCOP(=O)(OCC)/C(=C\n1c(=S)[nH]c2cc(C)ccc21)C(=O)OC,> 100
3,O=C1C2=Cc3ccccc3OC2(O)Oc2cc(O)cc(O)c21 (stereo not given),> 100
4,COc1ccc(-c2cc(-c3ccccc3)nc(N)c2-c2ccc3ccccc3c2)cc1,2.91
5,O=C(Cc1ccccc1)N[C@@H]1COC(=O)C2CCCN2C(=O)[C@@H]2CCCN2C1=O (stereo not given in full) (PhAc-[dS]-Pro-[ξP]; ester 1-C),> 100

# Tested on: HS 578T breast
# Test: growth of human tumour cells (NCI), 48 h
row,SMILES,TGI [µM]
1,Cc1ccc2c(=O)cc(-c3ccc(Cl)cc3)[nH]c2n1,> 100
2,O=C(Cc1ccccc1)N[C@@H]1COC(=O)C2CCCN2C(=O)[C@@H]2CCCN2C1=O (stereo not given in full) (PhAc-[dS]-Pro-[ξP]; ester 1-C),> 100

# Tested on: HT29 colon
# Test: growth of human tumour cells (NCI), 48 h
row,SMILES,TGI [µM]
1,Cc1ccc2c(=O)cc(-c3ccc(Cl)cc3)[nH]c2n1,> 29.4
2,CCOP(=O)(OCC)/C(=C\n1c(=S)[nH]c2cc(C)ccc21)C(=O)OC,> 100
3,O=C1C2=Cc3ccccc3OC2(O)Oc2cc(O)cc(O)c21 (stereo not given),> 100
4,COc1ccc(-c2cc(-c3ccccc3)nc(N)c2-c2ccc3ccccc3c2)cc1,2.28
5,O=C(Cc1ccccc1)N[C@@H]1COC(=O)C2CCCN2C(=O)[C@@H]2CCCN2C1=O (stereo not given in full) (PhAc-[dS]-Pro-[ξP]; ester 1-C),> 100

# Tested on: IGROV1 ovarian
# Test: growth of human tumour cells (NCI), 48 h
row,SMILES,TGI [µM]
1,Cc1ccc2c(=O)cc(-c3ccc(Cl)cc3)[nH]c2n1,> 100
2,CCOP(=O)(OCC)/C(=C\n1c(=S)[nH]c2cc(C)ccc21)C(=O)OC,> 100
3,O=C1C2=Cc3ccccc3OC2(O)Oc2cc(O)cc(O)c21 (stereo not given),> 100
4,COc1ccc(-c2cc(-c3ccccc3)nc(N)c2-c2ccc3ccccc3c2)cc1,3.11
5,O=C(Cc1ccccc1)N[C@@H]1COC(=O)C2CCCN2C(=O)[C@@H]2CCCN2C1=O (stereo not given in full) (PhAc-[dS]-Pro-[ξP]; ester 1-C),> 100

# Tested on: K-562 leukemia
# Test: growth of human tumour cells (NCI), 48 h
row,SMILES,TGI [µM]
1,Cc1ccc2c(=O)cc(-c3ccc(Cl)cc3)[nH]c2n1,29.1
2,O=C1C2=Cc3ccccc3OC2(O)Oc2cc(O)cc(O)c21 (stereo not given),> 100
3,COc1ccc(-c2cc(-c3ccccc3)nc(N)c2-c2ccc3ccccc3c2)cc1,> 100

# Tested on: KM12 colon
# Test: growth of human tumour cells (NCI), 48 h
row,SMILES,TGI [µM]
1,Cc1ccc2c(=O)cc(-c3ccc(Cl)cc3)[nH]c2n1,> 100
2,CCOP(=O)(OCC)/C(=C\n1c(=S)[nH]c2cc(C)ccc21)C(=O)OC,> 100
3,O=C1C2=Cc3ccccc3OC2(O)Oc2cc(O)cc(O)c21 (stereo not given),> 100
4,COc1ccc(-c2cc(-c3ccccc3)nc(N)c2-c2ccc3ccccc3c2)cc1,3.2
5,O=C(Cc1ccccc1)N[C@@H]1COC(=O)C2CCCN2C(=O)[C@@H]2CCCN2C1=O (stereo not given in full) (PhAc-[dS]-Pro-[ξP]; ester 1-C),> 100

# Tested on: LOX IMVI melanoma
# Test: growth of human tumour cells (NCI), 48 h
row,SMILES,TGI [µM]
1,Cc1ccc2c(=O)cc(-c3ccc(Cl)cc3)[nH]c2n1,> 100
2,CCOP(=O)(OCC)/C(=C\n1c(=S)[nH]c2cc(C)ccc21)C(=O)OC,> 100
3,O=C1C2=Cc3ccccc3OC2(O)Oc2cc(O)cc(O)c21 (stereo not given),> 100
4,COc1ccc(-c2cc(-c3ccccc3)nc(N)c2-c2ccc3ccccc3c2)cc1,3.1
5,O=C(Cc1ccccc1)N[C@@H]1COC(=O)C2CCCN2C(=O)[C@@H]2CCCN2C1=O (stereo not given in full) (PhAc-[dS]-Pro-[ξP]; ester 1-C),> 100

# Tested on: M14 melanoma
# Test: growth of human tumour cells (NCI), 48 h
row,SMILES,TGI [µM]
1,Cc1ccc2c(=O)cc(-c3ccc(Cl)cc3)[nH]c2n1,> 100
2,CCOP(=O)(OCC)/C(=C\n1c(=S)[nH]c2cc(C)ccc21)C(=O)OC,> 100
3,O=C1C2=Cc3ccccc3OC2(O)Oc2cc(O)cc(O)c21 (stereo not given),> 100
4,COc1ccc(-c2cc(-c3ccccc3)nc(N)c2-c2ccc3ccccc3c2)cc1,5.68
5,O=C(Cc1ccccc1)N[C@@H]1COC(=O)C2CCCN2C(=O)[C@@H]2CCCN2C1=O (stereo not given in full) (PhAc-[dS]-Pro-[ξP]; ester 1-C),> 100

# Tested on: MALME-3M melanoma
# Test: growth of human tumour cells (NCI), 48 h
row,SMILES,TGI [µM]
1,Cc1ccc2c(=O)cc(-c3ccc(Cl)cc3)[nH]c2n1,> 31.3
2,O=C1C2=Cc3ccccc3OC2(O)Oc2cc(O)cc(O)c21 (stereo not given),> 100
3,COc1ccc(-c2cc(-c3ccccc3)nc(N)c2-c2ccc3ccccc3c2)cc1,2.75
4,O=C(Cc1ccccc1)N[C@@H]1COC(=O)C2CCCN2C(=O)[C@@H]2CCCN2C1=O (stereo not given in full) (PhAc-[dS]-Pro-[ξP]; ester 1-C),> 100

# Tested on: MCF7 breast
# Test: growth of human tumour cells (NCI), 48 h
row,SMILES,TGI [µM]
1,Cc1ccc2c(=O)cc(-c3ccc(Cl)cc3)[nH]c2n1,> 100
2,CCOP(=O)(OCC)/C(=C\n1c(=S)[nH]c2cc(C)ccc21)C(=O)OC,> 100
3,O=C1C2=Cc3ccccc3OC2(O)Oc2cc(O)cc(O)c21 (stereo not given),> 100
4,COc1ccc(-c2cc(-c3ccccc3)nc(N)c2-c2ccc3ccccc3c2)cc1,3.36
5,O=C(Cc1ccccc1)N[C@@H]1COC(=O)C2CCCN2C(=O)[C@@H]2CCCN2C1=O (stereo not given in full) (PhAc-[dS]-Pro-[ξP]; ester 1-C),> 100

# Tested on: MDA-MB-231 breast
# Test: growth of human tumour cells (NCI), 48 h
row,SMILES,TGI [µM]
1,Cc1ccc2c(=O)cc(-c3ccc(Cl)cc3)[nH]c2n1,19.7
2,CCOP(=O)(OCC)/C(=C\n1c(=S)[nH]c2cc(C)ccc21)C(=O)OC,> 100
3,O=C1C2=Cc3ccccc3OC2(O)Oc2cc(O)cc(O)c21 (stereo not given),> 100
4,COc1ccc(-c2cc(-c3ccccc3)nc(N)c2-c2ccc3ccccc3c2)cc1,3.17
5,O=C(Cc1ccccc1)N[C@@H]1COC(=O)C2CCCN2C(=O)[C@@H]2CCCN2C1=O (stereo not given in full) (PhAc-[dS]-Pro-[ξP]; ester 1-C),> 100

# Tested on: MDA-MB-435
# Test: growth of human tumour cells (NCI), 48 h
row,SMILES,TGI [µM]
1,Cc1ccc2c(=O)cc(-c3ccc(Cl)cc3)[nH]c2n1,5.5
2,CCOP(=O)(OCC)/C(=C\n1c(=S)[nH]c2cc(C)ccc21)C(=O)OC,> 100
3,O=C1C2=Cc3ccccc3OC2(O)Oc2cc(O)cc(O)c21 (stereo not given),> 100
4,COc1ccc(-c2cc(-c3ccccc3)nc(N)c2-c2ccc3ccccc3c2)cc1,4.68
5,O=C(Cc1ccccc1)N[C@@H]1COC(=O)C2CCCN2C(=O)[C@@H]2CCCN2C1=O (stereo not given in full) (PhAc-[dS]-Pro-[ξP]; ester 1-C),> 100

# Tested on: MDA-N
# Test: growth of human tumour cells (NCI), 48 h
row,SMILES,TGI [µM]
1,Cc1ccc2c(=O)cc(-c3ccc(Cl)cc3)[nH]c2n1,5.56
2,CCOP(=O)(OCC)/C(=C\n1c(=S)[nH]c2cc(C)ccc21)C(=O)OC,> 100
3,O=C1C2=Cc3ccccc3OC2(O)Oc2cc(O)cc(O)c21 (stereo not given),> 100
4,COc1ccc(-c2cc(-c3ccccc3)nc(N)c2-c2ccc3ccccc3c2)cc1,3.17
5,O=C(Cc1ccccc1)N[C@@H]1COC(=O)C2CCCN2C(=O)[C@@H]2CCCN2C1=O (stereo not given in full) (PhAc-[dS]-Pro-[ξP]; ester 1-C),> 100

# Tested on: MOLT-4 leukemia
# Test: growth of human tumour cells (NCI), 48 h
row,SMILES,TGI [µM]
1,Cc1ccc2c(=O)cc(-c3ccc(Cl)cc3)[nH]c2n1,> 43.3
2,CCOP(=O)(OCC)/C(=C\n1c(=S)[nH]c2cc(C)ccc21)C(=O)OC,> 100
3,O=C1C2=Cc3ccccc3OC2(O)Oc2cc(O)cc(O)c21 (stereo not given),> 100
4,COc1ccc(-c2cc(-c3ccccc3)nc(N)c2-c2ccc3ccccc3c2)cc1,7.38
